Reference: ChEMBL document CHEMBL2311245, “Hypoxia-selective O6-alkylguanine-DNA alkyltransferase inhibitors: design, synthesis, and evaluation of 6-(benzyloxy)-2-(aryldiazenyl)-9H-purines as prodrugs of O6-benzylguanine” (J Med Chem, 2013)
Calls of active or inactive are those of the source. The rule behind the calls is not given here.

Columns and labels:
Type in all cases: cell-based
[1] = molecular target: T1, Methylated-DNA--protein-cysteine methyltransferase (Homo sapiens) (UniProt P16455); test: Inhibition of AGT in human DU145 cells assessed as potentiation of laromustine-induced cytotoxicity under hypoxic condition up to 50 uM treated 4 hrs prior to laromustine treatment measured after 24 hrs by clonogenic assay; details: DU-145
T1 sequence (whole entry): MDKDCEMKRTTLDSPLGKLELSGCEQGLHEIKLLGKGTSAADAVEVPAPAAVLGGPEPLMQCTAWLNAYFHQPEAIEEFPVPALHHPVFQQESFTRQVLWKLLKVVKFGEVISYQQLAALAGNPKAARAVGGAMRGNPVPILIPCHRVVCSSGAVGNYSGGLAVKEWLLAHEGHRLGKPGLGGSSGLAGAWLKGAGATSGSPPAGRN

[2] = molecular target: T1, Methylated-DNA--protein-cysteine methyltransferase (Homo sapiens); test: Inhibition of AGT in human DU145 cells assessed as potentiation of laromustine-induced cytotoxicity under normoxic condition up to 50 uM treated 4 hrs prior to laromustine treatment measured after 24 hrs by clonogenic assay; details: DU-145
[3] = molecular target: T1, Methylated-DNA--protein-cysteine methyltransferase (Homo sapiens); test: Inhibition of AGT in human DU145 cells assessed as potentiation of laromustine-induced cytotoxicity under hypoxic condition at >10 uM treated 4 hrs prior to laromustine treatment measured after 24 hrs by clonogenic assay; details: DU-145
DU-145 = test: Prodrug activation in human DU145 cells assessed as O6-benzylguanine formation under normoxic condition at 50 uM over 3 hrs by HPLC analysis; details: du-145, 3 h
[4] = molecular target: T1, Methylated-DNA--protein-cysteine methyltransferase (Homo sapiens); test: Inhibition of AGT in human DU145 cells assessed as potentiation of laromustine-induced cytotoxicity under normoxic condition up to 10 uM treated 4 hrs prior to laromustine treatment measured after 24 hrs by clonogenic assay; details: DU-145
[5] = molecular target: T1, Methylated-DNA--protein-cysteine methyltransferase (Homo sapiens); test: Inhibition of AGT in human DU145 cells assessed as potentiation of laromustine-induced cytotoxicity under hypoxic condition up to 10 uM treated 4 hrs prior to laromustine treatment measured after 24 hrs by clonogenic assay; details: DU-145
EMT6 = test: Prodrug activation in mouse EMT6 cells assessed as O6-benzylguanine formation under normoxic condition at 50 uM after 3 hrs by HPLC analysis; details: emt6, 3 h

CN1CCN(c2ccc(/N=N/c3nc(OCc4ccccc4)c4nc[nH]c4n3)cc2)CC1
inhibition [1]: Active | inhibition [2]: inactive

CN(C)c1ccc(/N=N/c2nc(OCc3ccccc3)c3nc[nH]c3n2)cc1
inhibition [3]: Active | Drug metabolism (DU-145): Not Active | inhibition [4]: inactive | inhibition [5]: Active | Drug metabolism (EMT6): Not Active
